Measured values: patent EP0852142A1, “Diamines in the treatment of arrhythmia” (SMITHKLINE BEECHAM LABORATOIRES PHARMACEUTIQUES, priority 1992, dated 1993)
Where “and” joins values, the source holds several entries; their conditions need not be identical. Identical values can stand only once.

Tests used:
anesthetized dog = experiment: Hemodynamic and electrocardiographic parameters in anesthetized dogs (before and during LCX occlusion/reperfusion); type: in vivo; conditions: for QTc: Bazett
Description: Surgical preparation. Dogs were anesthetized using 30 mg/kg i.v. sodium pentobarbital. […] A catheter was inserted into the right femoral artery to measure the systemic arterial pressure (Statham P23 ID, GOULD). A 5F Millar microtip catheter pressure transducer was inserted into the left carotid artery and advanced into the left ventricular lumen to measure the left ventricular pressure (LVP) and its first positive derivative dP/dt. Peripheral venous and arterial catheters were placed for drug administration and blood samples collection, respectively. Electrocardiographic variables were measured via a standard lead II ECG. For determination of the Q-T interval of ECG a CV5RL precordial lead of ECG was measured as previously described (Koerner et al.,J.,Cardiovascular Pharmacol. […] After a left thoracotomy through the fifth intercostal space, the heart was suspended in a pericardial cradle. The left circumflex coronary artery (LCX) was isolated close to its origin and a silk suture was placed around it for later occlusion. Experimental time course. After placement of the silk strand the animal was allowed to stabilize for at least 10 minutes. Arterial blood gases were determined (ABL500, Radiometer), and ventilation was adjusted to maintain these parameters within the normal range. Then, intravenous administration of the drug was performed in 10 minutes. After the drug administration, hemodynamic and ECG variables were again measured and the LCX was occluded for 45 minutes by placing a microclamp. Reperfusion performed by removing the clamp was continued for 5 hours. Arterial blood pressure and ECG were recorded continuously on a Gould polyrecorder. Signals were digitised by an A/D convertor and analysed on an IBM computer using an interactive software (Clodia, Clod sarl) and then transfered to a VAX 4000-200 computer (Digital Equipment Corporation, Maynard, MA) for further analysis. Heart rate was calculated from the ECG. […] QTc = (QT interval in msec) / (R-R interval in sec)^½.

[1] = test system: guinea pig papillary muscles; experiment: Electrophysiological studies: transmembrane action potentials of isolated papillary muscle; type: cell-based, Guinea pigs; conditions: for resting membrane potential, action potential amplitude, Vmax: even at the highest concentrations
Description: Guinea pigs (300-350 g) were anesthetized by intravenous injection of sodium pentobarbital (60 mg/kg). After thoracotomy the heart was rapidly excised and placed in oxygenated Tyrode solution. Papillary muscles were removed from the right ventricle. Preparations were then fixed to the silastic base of a 5 ml organ bath and superfused with oxygenated Tyrode solution maintained at 37 ± 1 °C.
The solution was equilibrated with a gas mixture of 95% O2 - 5% CO2.
After a stabilisation period (at least 1 h), transmembrane action potentials were recorded with conventional microelectrodes (10 MOhm) connected to a high input impedance amplifier (BIOLOGIC VF 180). External stimuli were delivered to the preparation with bipolar platinum electrodes placed at one end of the muscle. The pulse duration was 1 ms and the amplitude was twice threshold. The basic cycle length was 1000 ms (PULSAR 6i stimulator). The signals were monitored on a storage oscilloscope (GOULD 1602) and simultaneously recorded on a digital tape recorder (BIOLOGIC DTR 1200) for further analysis.
Measurements were made of resting membrane potential (RMP), action potential amplitude (APA) and action potential durations at 30, 50 and 90% repolarization (APD30, APD50 and APD90 respectively). Recordings were made after 30 min of equilibration for each concentration. Only recordings in which the same impalement was maintained throughout the entire experiment were used for analysis.

[2] = test system: Ischemia and reperfusion-induced arrhythmias; experiment: Ischemia and reperfusion-induced arrhythmias (ventricular fibrillation) in anesthetized dogs; type: in vivo, dog
Description: Surgical preparation. Dogs were anesthetized using 30 mg/kg i.v. sodium pentobarbital. […] A catheter was inserted into the right femoral artery to measure the systemic arterial pressure (Statham P23 ID, GOULD). A 5F Millar microtip catheter pressure transducer was inserted into the left carotid artery and advanced into the left ventricular lumen to measure the left ventricular pressure (LVP) and its first positive derivative dP/dt. Peripheral venous and arterial catheters were placed for drug administration and blood samples collection, respectively. Electrocardiographic variables were measured via a standard lead II ECG. […] After a left thoracotomy through the fifth intercostal space, the heart was suspended in a pericardial cradle. The left circumflex coronary artery (LCX) was isolated close to its origin and a silk suture was placed around it for later occlusion.
Experimental time course. After placement of the silk strand the animal was allowed to stabilize for at least 10 minutes. Arterial blood gases were determined (ABL500, Radiometer), and ventilation was adjusted to maintain these parameters within the normal range. Then, intravenous administration of the drug was performed in 10 minutes. After the drug administration, hemodynamic and ECG variables were again measured and the LCX was occluded for 45 minutes by placing a microclamp. Reperfusion performed by removing the clamp was continued for 5 hours.
Measurements. Ventricular arrhythmias were analyzed during the preischemic period, during ischemia and during the first hour of reperfusion. Ventricular premature beats (VPBs) were defined as identifiable premature QRS complexes and salvos as more than 2 consecutive VPBs. Ventricular tachycardia was defined as 4 or more consecutive VPBs. Ventricular fibrillation (VF) was diagnosed when total irregularity of rhythm occurred and when a rate could no longer be measured. If defibrillation was required a DC shock was given.

[3] = preischemic period, Compound I 0.3 and 1.0 mg/kg, d-sotalol 3.0 and 10.0 mg/kg

SMILES: COc1ccc(CCN(C)CCCN(C(=O)c2ccc([N+](=O)[O-])cc2)c2ccc(OC)c(OC)c2)cc1OC [Compound I, (N-[3,4-dimethoxy-phenyl]-N-3-[N'-2-(3,4-dimethoxyphenyl)-ethyl-N'-methylamino]propyl)-N'-4-nitrobenzamide]
- PR (anesthetized dog; dog, in vivo): 112 ± 4 ms and 120 ± 6 ms and 115 ± 7 ms and 116 ± 3 ms and 113 ± 3 ms
- heart rate (anesthetized dog; dog, in vivo): reduced heart rate in a dose-dependent manner
- mean arterial and left ventricular pressure (anesthetized dog; dog, in vivo): only minimal changes
- pressure rate product (anesthetized dog; dog, in vivo): reduced the pressure rate product
- Overshoot ([1]; 0.3 µM): 36 ± 1 mV
- Vmax ([1]; 0.3 µM): 168 ± 14 V/sec
- APD50 ([1]; 0.3 µM, action potential duration at 50 % of the repolarization): 162 ± 6 ms
- RMP ([1]; 0.3 µM, resting membrane potential): -92 ± 1 mV
- APD50 ([1]; 1 µM): 170 ± 5 ms
- Overshoot ([1]; 1 µM): 35 ± 1 mV
- RMP ([1]; 1 µM): -92 ± 1 mV
- Vmax ([1]; 1 µM): 168 ± 14 V/sec
- APD50 ([1]; 3 µM): 163 ± 5 ms
- Overshoot ([1]; 3 µM): 34 ± 1 mV
- RMP ([1]; 3 µM): -92 ± 1 mV
- Vmax ([1]; 3 µM): 169 ± 14 V/sec
- APD50 ([1]; 10 µM): 139 ± 6 ms
- Overshoot ([1]; 10 µM): 33 ± 2 mV
- RMP ([1]; 10 µM): -91 ± 1 mV
- Vmax ([1]; 10 µM): 167 ± 15 V/sec
- resting membrane potential, action potential amplitude, Vmax [1]: did not change
- action potential duration ([1]; prolongation at 0.3 and 1 µM, no further increase at 3 µM, reduced at 10 µM): biphasic effect
- incidence of ventricular fibrillation ([2]; 0.3 mg/kg, 45 min ischemia and first 60 min of reperfusion, control dogs 66.7 %): 33.3%
- incidence of ventricular fibrillation ([2]; 1.0 mg/kg, 45 min ischemia and first 60 min of reperfusion, control dogs 66.7 %, p <0.05): 14.3%
- ventricular fibrillation during ischemia ([2]; 0.3 or 1.0 mg/kg, ischemic period): none of the dogs treated with Compound I experienced ventricular fibrillation during ischemia

SMILES: CC(C)NCC(O)c1ccc(NS(C)(=O)=O)cc1 (stereo not drawn) [d-Sotalol]
- PR (anesthetized dog; 3.0 mg/kg i.v., After drug, before drug 105 ± 5): 118 ± 7 ms
- QT (anesthetized dog; 3.0 mg/kg i.v., After drug, before drug 238 ± 11): 269 ± 12 ms
- QTc (anesthetized dog; 3.0 mg/kg i.v., After drug, before drug 384 ± 8): 397 ± 11 msec/sec^½
- PR (anesthetized dog; 3.0 mg/kg i.v., Ischemia (45 min), before drug 105 ± 5): 111 ± 7 ms
- QT (anesthetized dog; 3.0 mg/kg i.v., Ischemia (45 min), before drug 238 ± 11): 264 ± 7 ms
- QTc (anesthetized dog; 3.0 mg/kg i.v., Ischemia (45 min), before drug 384 ± 8): 400 ± 8 msec/sec^½
- PR (anesthetized dog; 3.0 mg/kg i.v., reperfusion (60 min), before drug 105 ± 5): 112 ± 5 ms
- QT (anesthetized dog; 3.0 mg/kg i.v., reperfusion (60 min), before drug 238 ± 11): 251 ± 11 ms
- QTc (anesthetized dog; 3.0 mg/kg i.v., reperfusion (60 min), before drug 384 ± 8): 392 ± 16 msec/sec^½
- PR (anesthetized dog; 10.0 mg/kg i.v., After drug, before drug 109 ± 5): 115 ± 5 ms
- QT (anesthetized dog; 10.0 mg/kg i.v., After drug, before drug 251 ± 11): 337 ± 19 ms
- QTc (anesthetized dog; 10.0 mg/kg i.v., After drug, before drug 386 ± 3): 440 ± 14 msec/sec^½
- PR (anesthetized dog; 10.0 mg/kg i.v., Ischemia (45 min), before drug 109 ± 5): 113 ± 5 ms
- QT (anesthetized dog; 10.0 mg/kg i.v., Ischemia (45 min), before drug 251 ± 11): 312 ± 14 ms
- QTc (anesthetized dog; 10.0 mg/kg i.v., Ischemia (45 min), before drug 386 ± 3): 423 ± 10 msec/sec^½
- PR (anesthetized dog; 10.0 mg/kg i.v., reperfusion (60 min), before drug 109 ± 5): 113 ± 6 ms
- QT (anesthetized dog; 10.0 mg/kg i.v., reperfusion (60 min), before drug 251 ± 11): 285 ± 11 ms
- QTc (anesthetized dog; 10.0 mg/kg i.v., reperfusion (60 min), before drug 386 ± 3): 400 ± 8 msec/sec^½
- heart rate (anesthetized dog; [3]): reduced heart rate in a dose-dependent manner
- left ventricular dP/dtmax (anesthetized dog; [3]): reduction in the left ventricular dP/dtmax
- mean arterial and left ventricular pressure (anesthetized dog; [3]): only minimal changes
- pressure rate product (anesthetized dog; [3]): reduced the pressure rate product
- APA ([1]; 3 µM): 127 ± 1 mV
- APD30 ([1]; 3 µM): 93 ± 5 ms
- APD50 ([1]; 3 µM): 136 ± 5 ms
- APD90 ([1]; 3 µM): 171 ± 5 ms
- Overshoot ([1]; 3 µM): 33 ± 1 mV
- RMP ([1]; 3 µM): -95 ± 1 mV
- Vmax ([1]; 3 µM): 199 ± 30 V/sec
- APA ([1]; 10 µM): 128 ± 1 mV
- APD30 ([1]; 10 µM): 101 ± 8 ms
- APD50 ([1]; 10 µM): 151 ± 7 ms
- APD90 ([1]; 10 µM): 190 ± 7 ms
- Overshoot ([1]; 10 µM): 34 ± 1 mV
- RMP ([1]; 10 µM): -94 ± 1 mV
- Vmax ([1]; 10 µM): 209 ± 32 V/sec
- APA ([1]; 30 µM): 127 ± 1 mV
- APD30 ([1]; 30 µM): 104 ± 7 ms
- APD50 ([1]; 30 µM): 160 ± 6 ms
- APD90 ([1]; 30 µM): 204 ± 6 ms
- Overshoot ([1]; 30 µM): 33 ± 1 mV
- RMP ([1]; 30 µM): -94 ± 1 mV
- Vmax ([1]; 30 µM): 209 ± 32 V/sec
- APA ([1]; 100 µM): 127 ± 1 mV
- APD30 ([1]; 100 µM): 102 ± 7 ms
- APD50 ([1]; 100 µM): 165 ± 6 ms
- APD90 ([1]; 100 µM): 214 ± 7 ms
- Overshoot ([1]; 100 µM): 32 ± 1 mV
- RMP ([1]; 100 µM): -94 ± 1 mV
- Vmax ([1]; 100 µM): 207 ± 34 V/sec
- action potential duration ([1]; 3 to 100 µM): dose-dependent increase in action potential duration
- resting membrane potential, action potential amplitude, Vmax [1]: did not change
- ventricular fibrillation during the ischemic period ([2]; 3.0 mg/kg): one dog
- incidence of ventricular fibrillation ([2]; 10.0 mg/kg (only the high dose), ischemia and reperfusion): reduced the incidence of ventricular fibrillation
